Where a name gives a salt, the structure may show the parent alone.
Target: T1, mGluR5 receptor (Sus scrofa, UniProt I3LUI7)
T1 construct: 450 μg of protein from brain homogenate with 5 nM ^3[H]-MPEP; from tissue; host or cells: pig brain halves without medulla, cerebellum and pons
Assay: [3H]-MPEP mGluR5 receptor binding assay (pig brain homogenate)
Details: 5 nM [3H]-MPEP; for inhibition at 10 µM / % Inhibition of mGluR5 Receptor (pig) [^3H]-MPEP Bond at 10 μM: 10 μM compound; for inhibition at 10 µM: read-out: % Inhibition of mGluR5 Receptor (pig) [^3H]-MPEP Bond at 10 μM; for IC50: read-out: IC50 mGluR5 Receptor (pig) [^3H]-MPEP Bond
Summary of the method: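 Radioligand displacement of 5 nM [3H]-MPEP from pig brain homogenate (450 μg protein; medulla, cerebellum and pons removed) in 20 mM Hepes pH 8.0. Compounds were tested at 10 μM, incubated 60 min at room temperature, then filtered and counted by scintillation. Non-specific binding was defined with 10 μM MPEP.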

T1 sequence (I3LUI7 19-1212): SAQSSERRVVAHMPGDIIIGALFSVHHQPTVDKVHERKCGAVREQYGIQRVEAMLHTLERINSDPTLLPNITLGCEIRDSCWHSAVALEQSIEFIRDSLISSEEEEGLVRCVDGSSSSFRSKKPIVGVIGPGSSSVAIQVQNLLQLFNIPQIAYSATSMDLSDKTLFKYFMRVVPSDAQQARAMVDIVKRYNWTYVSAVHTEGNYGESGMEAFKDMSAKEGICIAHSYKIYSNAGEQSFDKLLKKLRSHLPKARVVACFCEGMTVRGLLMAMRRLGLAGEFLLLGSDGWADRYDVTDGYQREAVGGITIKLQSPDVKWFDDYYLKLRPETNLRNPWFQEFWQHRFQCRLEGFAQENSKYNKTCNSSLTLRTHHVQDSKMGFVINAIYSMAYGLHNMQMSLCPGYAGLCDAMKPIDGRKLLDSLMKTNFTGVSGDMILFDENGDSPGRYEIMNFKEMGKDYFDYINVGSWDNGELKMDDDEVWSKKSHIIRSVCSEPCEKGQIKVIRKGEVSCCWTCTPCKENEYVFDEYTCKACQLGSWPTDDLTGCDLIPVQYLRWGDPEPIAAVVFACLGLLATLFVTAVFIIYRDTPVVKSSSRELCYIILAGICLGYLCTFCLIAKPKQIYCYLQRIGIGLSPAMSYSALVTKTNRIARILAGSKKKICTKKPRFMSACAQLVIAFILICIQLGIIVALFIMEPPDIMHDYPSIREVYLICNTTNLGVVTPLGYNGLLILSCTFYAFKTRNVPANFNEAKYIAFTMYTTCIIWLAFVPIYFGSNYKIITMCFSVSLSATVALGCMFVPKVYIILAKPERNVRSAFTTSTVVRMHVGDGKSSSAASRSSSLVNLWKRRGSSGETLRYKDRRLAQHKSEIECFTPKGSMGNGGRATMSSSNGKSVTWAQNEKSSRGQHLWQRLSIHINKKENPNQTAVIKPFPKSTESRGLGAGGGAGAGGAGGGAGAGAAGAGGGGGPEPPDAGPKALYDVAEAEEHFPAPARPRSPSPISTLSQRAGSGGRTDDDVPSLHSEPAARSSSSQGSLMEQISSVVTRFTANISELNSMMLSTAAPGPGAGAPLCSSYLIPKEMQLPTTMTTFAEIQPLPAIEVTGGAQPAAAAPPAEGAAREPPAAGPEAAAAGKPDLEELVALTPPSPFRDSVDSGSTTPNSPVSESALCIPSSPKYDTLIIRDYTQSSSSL

Row | SMILES | inhibition at 10 µM [%] | other results
1 | CCCN(Cc1cccc(-c2ccc3ncnc(Nc4ccccc4)c3c2)c1)C(=O)Cc1ccccn1 [Example 106, N-[3-(4-phenylamino-quinazolin-6-yl)-benzyl]-N-propyl-2-pyridin-2-yl-acetamide] | 39 | –
2 | O=S(=O)(c1ccc(Cl)cc1Cl)N(Cc1cc(-c2ccc3ncnc(NC4CC4)c3c2)ccc1Cl)C1CC1 [Example 794, 2,4-dichloro-N-(2-chloro-5-(4-(cyclopropylamino)quinazolin-6-yl)benzyl)-N-cyclopropyl benzole sulfonamide] | – | % Inhibition of mGluR5 Receptor (pig) [^3H]-MPEP Bond at 10 μM: 93%
3 | CC(C)(C)Nc1ncnc2ccc(-c3ccc(F)c(CN(C(=O)c4ccncc4)C4CC4)c3)cc12 [Example 832, N-(5-(4-(tert-butylamino)quinazolin-6-yl)-2-fluorobenzyl)-N-cyclopropyl isonicotinamide] | – | % Inhibition of mGluR5 Receptor (pig) [^3H]-MPEP Bond at 10 μM: 96%
4 | Cc1cc(C(=O)N(Cc2cc(-c3ccc4ncnc(NC5CC5)c4c3)ccc2F)C2CC2)n(C)n1 [Example 435, N-cyclopropyl-N-(5-(4-(cyclopropylamino)quinazolin-6-yl)-2-fluorobenzyl)-1,3-dimethyl-1H-pyrazole-5-carboxamide] | 87 | –
5 | O=C(c1ccccc1Cl)N(Cc1cccc(-c2ccc3ncnc(N4CCCC4)c3c2)c1)C1CC1 [Example 143, 2-chloro-N-cyclopropyl-N-[3-(4-pyrrolidin-1-yl-quinazolin-6-yl)-benzyl]-benzamide] | 71 | –
6 | O=C(c1cc2ccccc2cn1)N(Cc1cccc(-c2ccc3ncnc(N4CCCC4)c3c2)c1)C1CC1 [Example 125, isoquinoline-3-carboxylic acid cyclopropyl-[3-(4-pyrrolidin-1-yl-quinazolin-6-yl)-benzyl]-amide] | 30 | –
7 | c1ccc(N(Cc2cccc(-c3ccc4ncnc(NC5CC5)c4c3)c2)C2CC2)nc1 [Example 888, N-cyclopropyl-6-(3-((cyclopropyl(pyridin-2-yl)amino)methyl)phenyl)quinazoline-4-amine] | – | IC50: 2650 nM
8 | O=S(=O)(c1ccccc1)N(Cc1cc(-c2ccc3ncnc(NC4CC4)c3c2)ccc1Cl)C1CC1 [Example 799, N-(2-chloro-5-(4-(cyclopropylamino)quinazolin-6-yl)benzyl)-N-cyclopropyl benzole sulfonamide] | – | % Inhibition of mGluR5 Receptor (pig) [^3H]-MPEP Bond at 10 μM: 92%
9 | O=C(N(Cc1cc(-c2ccc3ncnc(NC4CC4)c3c2)ccc1F)C1CC1)C(F)(F)F [Example 870, N-cyclopropyl-N-(5-(4-(cyclopropylamino)quinazolin-6-yl)-2-fluorobenzyl)-2,2,2-trifluoroacetamide] | – | IC50: 10 nM
10 | COC(=O)C(=O)N(Cc1cccc(-c2ccc3ncnc(NC4CC4)c3c2)c1)C1CC1 [Example 238, N-cyclopropyl-N-[3-(4-cyclopropylamino-quinazolin-6-yl)-benzyl]-methyl oxalate] | – | IC50: 500 nM
11 | O=C(c1ccno1)N(Cc1cccc(-c2ccc3ncnc(NC4CC4)c3c2)c1)C1CC1 [Example 253, isoxazole-5-carboxylic acid cyclopropyl-[3-(4-cyclopropylamino-quinazolin-6-yl)-benzyl]-amide] | – | IC50: 1310 nM
12 | Cc1nc(NC2CC2)c2cc(-c3cccc(CN(C(=O)c4c(F)c(F)c(F)c(F)c4F)C4CC4)c3)ccc2n1 [Example 447, N-cyclopropyl-N-(3-(4-(cyclopropylamino)-2-methylquinazolin-6-yl)benzyl)-2,3,4,5,6-pentafluorobenzamide] | 85 | –
13 | Cc1nc(NC2CC2)c2cc(-c3cccc(CN(C(=O)c4cccc(F)c4)C4CC4)c3)ccc2n1 [Example 509, N-cyclopropyl-N-(3-(4-(cyclopropylamino)-2-methylquinazolin-6-yl)benzyl)-3-fluorobenzamide] | 31 | –
14 | CS(=O)(=O)N(Cc1cccc(-c2ccc3ncnc(NC4CC4)c3c2)c1)Cc1ccco1 [Example 215, N-(3-(4-(cyclopropylamino)quinazolin-6-yl)benzyl)-N-(furan-2-yl-methyl)methane sulfonamide] | – | IC50: 3610 nM
15 | O=C(Cc1ccccc1)N(Cc1cc(-c2ccc3ncnc(NC4CC4)c3c2)ccc1F)C1CC1 [Example 406, N-cyclopropyl-N-(5-(4-(cyclopropylamino)quinazolin-6-yl)-2-fluorobenzyl)-2-phenylacetamide] | 95 | –
16 | CCCN(Cc1cccc(-c2ccc3ncnc(Nc4ccccc4)c3c2)c1)C(=O)c1ccccc1 [Example 89, N-[3-(4-phenylamino-quinazolin-6-yl)-benzyl]-N-propyl-benzamide] | 52 | –
17 | N#Cc1cccc(C(=O)N(Cc2cccc(-c3ccc4ncnc(NC5CC5)c4c3)c2)C2CC2)c1 [Example 176, 3-cyano-N-cyclopropyl-N-[3-(4-cyclopropylamino-quinazolin-6-yl)-benzyl]-benzamide] | 76 | –
18 | CC(=O)N(CC#N)Cc1cccc(-c2ccc3ncnc(NC4CC4)c3c2)c1 [Example 200, N-cyanomethyl-N-[3-(4-cyclopropylamino-quinazolin-6-yl)-benzyl]-acetamide] | 40 | –
19 | O=C(CCl)N(Cc1cc(-c2ccc3ncnc(NC4CC4)c3c2)ccc1F)C1CC1 [Example 283, 2-chloro-N-cyclopropyl-N-(5-(4-(cyclopropylamino)quinazolin-6-yl)-2-fluorobenzyl)acetamide] | – | IC50: 290 nM
20 | CC(C)S(=O)(=O)N(Cc1cc(-c2ccc3ncnc(NC(C)(C)C)c3c2)ccc1F)C1CC1 [Example 822, N-(5-(4-(tert-butylamino)quinazolin-6-yl)-2-fluorobenzyl)-N-cyclopropyl propane-2-sulfonamide] | – | % Inhibition of mGluR5 Receptor (pig) [^3H]-MPEP Bond at 10 μM: 86%
21 | O=C(c1ccc(C(F)(F)F)cc1F)N(Cc1ccccc1)Cc1cccc(-c2ccc3ncnc(NC4CC4)c3c2)c1 [Example 152, N-benzyl-N-[3-(4-cyclopropylamino-quinazolin-6-yl)-benzyl]-2-fluoro-4-trifluoromethyl-benzamide] | 45 | –
22 | Cc1cc(CNC2CC2)cc(-c2ccc3ncnc(NC4CC4)c3c2)c1 [Example 306, N-cyclopropyl-6-(3-((cyclopropylamino)methyl)-5-methylphenyl)quinazoline-4-amine] | 33 | –
23 | CCN(CC)c1ncnc2ccc(-c3cccc(CN(C)C(=O)Cc4ccccn4)c3)cc12 [Example 68, N-[3-(4-diethylamino-quinazolin-6-yl)-benzyl]-N-methyl-2-pyridin-2-yl-acetamide] | 30 | –
24 | COc1ccc(S(=O)(=O)N(Cc2cc(-c3ccc4ncnc(NC5CC5)c4c3)ccc2F)C2CC2)cc1 [Example 383, N-cyclopropyl-N-(5-(4-(cyclopropylamino)quinazolin-6-yl)-2-fluorobenzyl)-4-methoxybenzole sulfonamide] | – | % Inhibition of mGluR5 Receptor (pig) [^3H]-MPEP Bond at 10 μM: 69%
25 | CN(C)CC(=O)N(Cc1cccc(-c2ccc3ncnc(NCCc4ccccc4)c3c2)c1)C1CC1 [Example 417, N-cyclopropyl-2-(dimethylamino)-N-(3-(4-(phenethylamino)quinazolin-6-yl)benzyl)acetamide] | 60 | –

Continued, in another order:

Row | inhibition at 10 µM [%] | SMILES | other results
26 | 83 | CC(C)S(=O)(=O)N(Cc1cc(-c2ccc3ncnc(NC4CC4)c3c2)ccn1)C1CC1 [Example 804, N-cyclopropyl-N-((4-(4-(cyclopropylamino)quinazolin-6-yl)pyridin-2-yl)methyl)propane-2-sulfonamide] | –
27 | 78 | O=C(c1ccccn1)N(Cc1cc(-c2ccc3ncnc(NC4CC4)c3c2)ccc1Cl)C1CC1 [Example 755, N-(2-chloro-5-(4-(cyclopropylamino)quinazolin-6-yl)benzyl)-N-cyclopropylpicolinamide] | –
28 | 91 | CCCCC(=O)N(Cc1cc(-c2ccc3nc(C)nc(NC4CC4)c3c2)ccc1F)C1CC1 [Example 540, N-cyclopropyl-N-(5-(4-(cyclopropylamino)-2-methylquinazolin-6-yl)-2-fluorobenzyl)pentanamide] | –
29 | 71 | O=C(c1ccc(F)cc1F)N(Cc1cc(-c2ccc3ncnc(NC4CC4)c3c2)ccn1)C1CC1 [Example 817, N-cyclopropyl-N-((4-(4-(cyclopropylamino)quinazolin-6-yl)pyridin-2-yl)methyl)-2,4-difluorobenzamide] | –
30 | 92 | N#CCC(=O)N(Cc1cc(F)cc(-c2ccc3ncnc(NC4CC4)c3c2)c1)C1CC1 [Example 902, 2-cyano-N-cyclopropyl-N-(3-(4-(cyclopropylamino)quinazolin-6-yl)-5-fluorobenzyl)acetamide] | –
31 | 53 | CC(=O)N(C)Cc1cc(-c2ccc3ncnc(NCc4ccccc4)c3c2)ccc1F [Example 595, N-(5-(4-(benzylamino)quinazolin-6-yl)-2-fluorobenzyl)-N-methylacetamide] | –
32 | 53 | CN(C)CC(=O)N(Cc1cccc(-c2cc(F)c3ncnc(NC4CC4)c3c2)c1)C1CC1 [Example 751, N-cyclopropyl-N-(3-(4-(cyclopropylamino)-8-fluoroquinazolin-6-yl)benzyl)-2-(dimethylamino)acetamide] | –
33 | 90 | CC(C)(C)C(=O)N(Cc1cc(-c2ccc3ncnc(NC4CC4)c3c2)ccc1F)C1CC1 [Example 645, N-cyclopropyl-N-(5-(4-(cyclopropylamino)quinazolin-6-yl)-2-fluorobenzyl)pivalamide] | –
34 | 74 | CC(C)(C)Nc1ncnc2ccc(-c3ccc(F)c(CN(C(=O)c4c(F)c(F)c(F)c(F)c4F)C4CC4)c3)cc12 [Example 840, N-(5-(4-(tert-butylamino)quinazolin-6-yl)-2-fluorobenzyl)-N-cyclopropyl-2,3,4,5,6-pentafluorobenzamide] | –
35 | 67 | O=C(c1cccnc1)N(Cc1cccc(-c2cc(F)c3ncnc(NC4CC4)c3c2)c1)C1CC1 [Example 781, N-cyclopropyl-N-(3-(4-(cyclopropylamino)-8-fluoroquinazolin-6-yl)benzyl)nicotinamide] | –
